How the values were obtained:
Type in all cases: in vivo, humans
[1] = Teicoplanin concentration in peritoneal dialysis effluent (PDE) by HPLC
Procedure: (§1) According to the patient’s PD plan, teicoplanin for injection was evenly distributed into each bag of PD fluid before the patient’s PD procedure to ensure that each bag of dialysis fluid entering the peritoneal cavity contained teicoplanin. […] The number of dialysis times per day is determined by the peritoneal function of each peritoneal dialysis patient.
(§2) All patients received peritoneal dialysate and serum samples. […] Serum samples were collected on the 4th day prior to drug administration. Blood samples were centrifuged at 3,000 rpm for 10 minutes. The upper serum layer was then transferred into labeled EP tubes and stored at −80°C. Peritoneal fluid samples were collected daily after the PD procedure. The peritoneal fluid bag was disinfected with iodine, and peritoneal effluent was withdrawn using a sterile syringe and stored at −80°C.
(§3) An Agilent Zorbax SB-C18 column (4.6 × 250 mm, 5 μm) was used. Methyl p-hydroxybenzoate served as the internal standard. The column temperature was kept at 35°C. The mobile phase comprised acetonitrile - 0.01 mol/L potassium dihydrogen phosphate (26:74, v/v, pH = 2.8 adjusted by phosphoric acid). A flow rate of 1 mL/min was set, with an injection volume of 40 μL. UV detection was conducted at 215 nm, while the column temperature remained at 40°C. The pretreatment and chromatographic methods for detecting teicoplanin in serum and PD effluent are the same (Supplement Material).
Using multiple 1.5 mL centrifuge tubes, 360 μL of bovine serum is added to each tube. Subsequently, 40 μL of the respective standard curve series working solution, 30 μL of the internal standard solution, and 600 μL of acetonitrile are added. The contents are thoroughly mixed by vortexing, centrifuged at 14,000 rpm for 8 minutes, and 100 μL of the supernatant is transferred to sample vials for HPLC analysis.
Perform linear regression fitting using the weighted (1/X^2) least squares method, resulting in the standard curve regression equation y = 0.0262x-0.0124 (R^2 = 0.9994).

[2] = tested on: PDAP patients with gram-positive bacteria cultured from PD effluent; test: Efficacy of intraperitoneal teicoplanin in PDAP patients (PD effluent analysis, clinical symptoms, infection markers)
Source text: According to the ISPD guidelines recommendation ([Li et al., 2022]), doctors can establish a diagnosis of PDAP. […] Participants should not have taken part in other clinical trials in the past 3 months, understand the trial’s purpose, willingly participate, and sign informed consent forms.
as §1
[…] This assessment considered primary efficacy endpoints, secondary efficacy endpoints, and primary safety endpoints. The primary efficacy endpoints in this study are: 1) White blood cell count in PD effluent (p-WBC) < 100 × 10^6/L; 2) Percentage of neutrophilic granulocytes in PD effluent (p-NE%) < 50%; 3) Resolution of abdominal pain, absence of fever, and clarity of PD effluent in clinical signs of patients. According to ISPD guidelines, meeting all three criteria or two of the three constitutes a cure, while meeting one is classified as partial relief. The efficacy calculation involves determining the proportion of cured and partially relieved patients among the total.
(§4) The secondary efficacy endpoints of this study mainly involve infectious markers: C-reactive protein (CRP) and procalcitonin (PCT); Hematological parameters: white blood cell count (b-WBC), blood neutrophilic granulocyte percentage (b-NE%), and hemoglobin (Hb); Renal function markers: serum creatinine (Scr), urea, uric acid (UA), and albumin (ALB).
However, most patients show significant improvement in clinical symptoms within 1 week.

[3] = Serum teicoplanin concentration by HPLC; details: Uncured group n = 7, serum collected on the 4th day prior to drug administration, intraperitoneal 0.2 g daily, HPLC-UV 215 nm, mean ± SD
Procedure: as §2, §3

PDAP patients = test: Renal function, blood lipid and electrolyte indicators before and after teicoplanin treatment; details: post-treatment group n = 36
Source text: as §4
There were no significant changes in indicators such as Scr after medication compared to before treatment, and there was no significant difference in the patients' renal function (Table S3).

[4] = Cured group n = 29, intraperitoneal 0.2 g daily, HPLC-UV, mean (Q25, Q75)
[5] = Cured group n = 29, intraperitoneal 0.2 g daily, HPLC-UV, mean ± SD, SD
[6] = Uncured group n = 7, intraperitoneal 0.2 g daily, HPLC-UV, mean ± SD, SD
[7] = Uncured group n = 7, mean (Q25, Q75)
[8] = Uncured group n = 7, mean ± SD, SD
[9] = number of 36 PDAP patients, intraperitoneal 0.2 g daily, after 7 days

With teicoplanin the “PDE teicoplanin concentration on Day 5” value ([1]; 24-h urine volume 0–200 mL, n = 17, M50 (M25, M75)) was 12.85 (8.12, 21.23) mg/L, the “PDE teicoplanin concentration on Day 5” value ([1]; 24-h urine volume 201–537 mL, n = 10, M50 (M25, M75)) was 10.17 (7.38, 24.59) mg/L and the “PDE teicoplanin concentration on Day 5” value ([1]; 24-h urine volume >537 mL, n = 9, M50 (M25, M75)) was 23.16 (18.89, 39.45) mg/L. For the same substance, the “Day 3 PDE teicoplanin concentration” value [1, 4] was 14.17 (6.80, 22.93) mg/L, the “Day 7 PDE teicoplanin concentration” value [1, 4] was 20.89 (9.45, 30.23) mg/L and the “Day 1 PDE teicoplanin concentration” value [1, 5] was 13.65 ± 3.26 mg/L. The “Day 5 PDE teicoplanin concentration” value [1, 5] was 18.98 ± 2.43 mg/L, the “Day 7 PDE teicoplanin concentration” value ([1]; Uncured group n = 7, intraperitoneal 0.2 g daily, HPLC-UV, mean (Q25, Q75)) was 11.43 (8.42, 13.21) mg/L and the “Day 1 PDE teicoplanin concentration” value [1, 6] was 11.48 ± 3.39 mg/L. For the same substance, the “Day 5 PDE teicoplanin concentration” value [1, 6] was 12.07 ± 2.68 mg/L, the “day-5 PDE teicoplanin concentration” value ([1]; age 49 ~ 61 years old, n = 9, mean ± SD, SD) was 10.18 ± 1.68 mg/L and the “day-5 PDE teicoplanin concentration” value ([1]; age 62 ~ 71 years old, n = 9, mean ± SD, SD) was 20.19 ± 8.62 mg/L. For the same substance, the “day-5 PDE teicoplanin concentration” value ([1]; age > 71 years old, n = 9, mean ± SD, SD) was 29.46 ± 12.29 mg/L, the “day-5 PDE teicoplanin concentration” value ([1]; age ≤ 48 years old, n = 9, mean ± SD, SD) was 19.46 ± 10.28 mg/L and the “day-5 PDE teicoplanin concentration” value ([1]; body weight 54-60 kg, n = 9, mean ± SD, SD) was 20.19 ± 6.74 mg/L. For the same substance, the “day-5 PDE teicoplanin concentration” value ([1]; body weight 61-76.5 kg, n = 8, mean ± SD, SD) was 15.37 ± 6.39 mg/L, the “day-5 PDE teicoplanin concentration” value ([1]; body weight ≤ 53 kg, n = 10, mean ± SD, SD) was 24.23 ± 7.34 mg/L and the “day-5 PDE teicoplanin concentration” value ([1]; body weight ≥ 76.5kg, n = 9, mean ± SD, SD) was 19.27 ± 7.38 mg/L. The “day-5 PDE teicoplanin concentration” value ([1]; both G1.5% and G2.5% low calcium peritoneal dialysate, n = 8, mean ± SD, SD) was 19.47 ± 9.45 mg/L, the “PDE teicoplanin concentration on Day 5” value ([1]; daily PD frequency 1–3 times, n = 5, mean ± SD, SD) was 38.71 ± 16.36 mg/L and the “PDE teicoplanin concentration on Day 5” value ([1]; daily PD frequency 4 times, n = 18, mean ± SD, SD) was 12.89 ± 7.28 mg/L. The “PDE teicoplanin concentration on Day 5” value ([1]; daily PD frequency 5–6 times, n = 13, mean ± SD, SD) was 17.67 ± 10.23 mg/L, the “day-5 PDE teicoplanin concentration” value ([1]; eGFR 4.726 ~ 6.35 mL/min, n = 9, mean ± SD, SD) was 28.39 ± 11.47 mg/L and the “day-5 PDE teicoplanin concentration” value ([1]; eGFR 6.36 ~ 8.524 mL/min, n = 9, mean ± SD, SD) was 18.26 ± 7.45 mg/L. For the same substance, the “day-5 PDE teicoplanin concentration” value ([1]; eGFR ≤ 4.725 mL/min, n = 9, mean ± SD, SD) was 16.05 ± 5.28 mg/L, the “day-5 PDE teicoplanin concentration” value ([1]; eGFR ≥ 8.525 mL/min, n = 9, mean ± SD, SD) was 21.21 ± 9.21 mg/L and the “day-5 PDE teicoplanin concentration” value ([1]; females, n = 14, mean ± SD, SD) was 18.22 ± 6.29 mg/L. The “day-5 PDE teicoplanin concentration” value ([1]; fibrinogen 4.2 to 5.2 g/L, n = 9, mean ± SD, SD) was 20.72 ± 8.16 mg/L, the “day-5 PDE teicoplanin concentration” value ([1]; fibrinogen 5.3 to 6.54 g/L, n = 7, mean ± SD, SD) was 17.35 ± 6.45 mg/L and the “day-5 PDE teicoplanin concentration” value ([1]; fibrinogen ≤ 4.1 g/L, n = 9, mean ± SD, SD) was 30.56 ± 12.32 mg/L. The “day-5 PDE teicoplanin concentration” value ([1]; fibrinogen ≥ 6.55 g/L, n = 11, mean ± SD, SD) was 14.87 ± 7.07 mg/L, the “day-5 PDE teicoplanin concentration” value ([1]; males, n = 22, mean ± SD, SD) was 19.25 ± 7.89 mg/L and the “day-5 PDE teicoplanin concentration” value ([1]; only G1.5% low calcium peritoneal dialysate, n = 10, mean ± SD, SD) was 19.24 ± 10.23 mg/L. The “day-5 PDE teicoplanin concentration” value ([1]; only G2.5% low calcium peritoneal dialysate, n = 18, mean ± SD, SD) was 24.48 ± 9.23 mg/L, the CRP after treatment [2, 7] was 34.00 (5.20, 69.38) mg/L and the PCT after treatment [2, 7] was 0.66 (0.29, 2.87) ng/mL. The p-WBC after treatment [2, 7] was 159.00 (112.5, 1023.5) *10^6/L, the b-NE% after treatment [2, 8] was 71.08 ± 25.08% and the b-WBC after treatment [2, 8] was 6.40 ± 2.28 *10^9/L. The p-NE% after treatment [2, 8] was 58.86 ± 33.91%, the Fever ([2]; cases (%) in post-treatment group n = 36, pre-treatment 8 (22.3%)) was 1 (2.7%) and the Diarrhea ([2]; cases (%) in post-treatment group n = 36, pre-treatment 9 (25%)) was 1 (2.7%). The Peritoneal dialysate turbidity ([2]; cases (%) in post-treatment group n = 36, pre-treatment 26 (72.2%)) was 2 (5.6%), the Abdominal pain ([2]; cases (%) in post-treatment group n = 36, pre-treatment 31 (86.1%)) was 3 (8.3%) and the “overall treatment success rate” value ([2]; cured plus partial remission among 36 PDAP patients, intraperitoneal 0.2 g daily, assessed after 7 days) was 88.9%. For the same substance, the “patients with treatment failure” value ([2]; number of 36 PDAP patients (1 died, 3 permanently transitioned to hemodialysis)) was 4, the patients cured [2, 9] was 29 and the “patients in partial remission” value [2, 9] was 3. The p-Lym% ([2]; post-treatment group n = 36, after 7 days, mean (Q25, Q75), pre-treatment 14.55 (9.85, 29.1)) was 72.85 (45.95, 86.45) %, the “p-Lym (lymphocyte count in PD effluent)” value ([2]; post-treatment group n = 36, after 7 days, mean (Q25, Q75), pre-treatment 196.00 (91.15, 444.62)) was 14.00 (6.25, 49.75) *10^6/L and the p-NE ([2]; post-treatment group n = 36, after 7 days, mean (Q25, Q75), pre-treatment 1099.60 (418.57, 3333.62)) was 4.00 (1.00, 18.00) *10^6/L. For the same substance, the “p-WBC (white blood cell count in PD effluent)” value ([2]; post-treatment group n = 36, after 7 days, mean (Q25, Q75), pre-treatment 1333.5 (573.50, 4475.00)) was 28.00 (10.25, 75.00) *10^6/L, the PCT ([2]; secondary indicator, post-treatment group n = 36, after 14 days, mean (Q25, Q75), pre-treatment 0.66 (0.30, 2.99)) was 0.61 (0.29, 1.15) ng/mL and the b-WBC ([2]; secondary indicator, post-treatment group n = 36, after 14 days, mean (Q25, Q75), pre-treatment 6.40 (5.32, 8.00)) was 6.20 (5.32, 8.85) *10^9/L. The CRP ([2]; secondary indicator, post-treatment group n = 36, after 14 days, mean (Q25, Q75), pre-treatment 37.50 (10.00, 101.27)) was 8.30 (3.55, 19.33) mg/L, the b-NE% ([2]; secondary indicator, post-treatment group n = 36, after 14 days, mean (Q25, Q75), pre-treatment 77.60 (67.42, 84.95)) was 69.10 (59.32, 72.60) % and the Serum teicoplanin concentration [3] was 10.85 ± 4.92. It also gave an ALB (PDAP patients; mean ± SD, pre-treatment 28.66 ± 4.99, SD) of 28.55 ± 5.97 g/L, a Scr (PDAP patients; mean ± SD, pre-treatment 772.45 ± 320.15, SD) of 739.46 ± 312.14 µmol/L and an HDL (PDAP patients; pre-treatment 0.88 ± 0.38) of 0.76 ± 0.55 mmol/L. For the same substance, the TG (PDAP patients; pre-treatment 1.25 (1.02, 1.74)) was 1.21 (1.01, 2.27) mmol/L, the LDL (PDAP patients; pre-treatment 1.91 ± 0.81) was 1.49 ± 0.69 mmol/L and the Ca (PDAP patients; pre-treatment 2.02 (1.86, 2.18)) was 2.08 (1.81, 2.26) mmol/L. For the same substance, the TC (PDAP patients; pre-treatment 3.49 ± 1.02) was 2.97 ± 0.85 mmol/L, the eGFR (PDAP patients; pre-treatment 6.35 (4.72, 8.52)) was 7.30 (4.90, 8.50) mL/min/1.73m^2 and the Urea (PDAP patients; pre-treatment 16.20 (12.55, 21.46)) was 16.00 (10.20, 21.30) mmol/L. The Na (PDAP patients; pre-treatment 134.75 ± 5.25) was 136.40 ± 5.49 mmol/L.

Source: paper PMC11416981 (Frontiers in Pharmacology, 2024)
